According to PubChem BioAssay AID248 (DTP/NCI, 2004):
Several values for one entry are separate records, joined by “and”; a condition that tells them apart may be missing. Equal entries are not always repeated. Inconclusive results and toxic doses are left out. No stated cut-off is given here; in the data, active means T/C of 150% or more; inactive means T/C below 125%.

System: L1210 leukemia ip in BDF1 mice, survival T/C
Test: NCI In Vivo Anticancer Drug Screen. Data for tumor model L1210 Leukemia (intraperitoneal) in B6D2F1 (BDF1) mice
Conditions: endpoint: mean survival time, higher = longer survival
Summary of the method: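 Read-out is survival time, reported as the treated-group measurement over the vehicle-control measurement.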

[1] = dose: 100.0 mg/kg/injection, schedule: Q01DX001 (ip), vehicle: saline
[2] = dose: 25.0 mg/kg/injection, schedule: Q01DX009 (ip), vehicle: Klucel (hydroxypropylcellulose) (HPC)
[3] = dose: 50.0 mg/kg/injection, schedule: Q01DX009 (ip), vehicle: Klucel (hydroxypropylcellulose) (HPC)
[4] = dose: 100.0 mg/kg/injection, schedule: Q01DX009 (ip), vehicle: Klucel (hydroxypropylcellulose) (HPC)
[5] = dose: 100.0 mg/kg/injection, schedule: Q04DX003 (ip), vehicle: saline
[6] = dose: 200.0 mg/kg/injection, schedule: Q04DX003 (ip), vehicle: saline
[7] = dose: 400.0 mg/kg/injection, schedule: Q04DX003 (ip), vehicle: saline
[8] = dose: 100.0 mg/kg/injection, schedule: Q01DX009 (ip), vehicle: saline
[9] = dose: 200.0 mg/kg/injection, schedule: Q01DX009 (ip), vehicle: saline
[10] = dose: 100.0 mg/kg/injection, schedule: Q04DX003 (ip), vehicle: Klucel (hydroxypropylcellulose) (HPC)
[11] = dose: 200.0 mg/kg/injection, schedule: Q04DX003 (ip), vehicle: Klucel (hydroxypropylcellulose) (HPC)
[12] = dose: 400.0 mg/kg/injection, schedule: Q04DX003 (ip), vehicle: Klucel (hydroxypropylcellulose) (HPC)
[13] = dose: 100.0 mg/kg/injection, schedule: Q01DX001 (ip), vehicle: Klucel (hydroxypropylcellulose) (HPC)
[14] = dose: 200.0 mg/kg/injection, schedule: Q01DX001 (ip), vehicle: Klucel (hydroxypropylcellulose) (HPC)
[15] = dose: 100.0 mg/kg/injection, schedule: Q01DX001 (ip), vehicle: carboxymethylcellulose (CMC)
[16] = dose: 200.0 mg/kg/injection, schedule: Q01DX001 (ip), vehicle: carboxymethylcellulose (CMC)
[17] = dose: 400.0 mg/kg/injection, schedule: Q01DX001 (ip), vehicle: carboxymethylcellulose (CMC)
[18] = dose: 100.0 mg/kg/injection, schedule: Q04DX002 (ip), vehicle: Klucel (hydroxypropylcellulose) (HPC)
[19] = dose: 200.0 mg/kg/injection, schedule: Q04DX002 (ip), vehicle: Klucel (hydroxypropylcellulose) (HPC)
[20] = dose: 200.0 mg/kg/injection, schedule: Q01DX001 (ip), vehicle: saline
[21] = dose: 400.0 mg/kg/injection, schedule: Q01DX001 (ip), vehicle: saline

Measured: T/C

CC(=O)O[C@@]1(C)C(=O)OCC2=CCN3CC[C@@H](OC(=O)[C@H](C)[C@]1(C)OC(C)=O)[C@@H]23
inactive: [1] 117 % of control

Cc1cc(=O)oc2cc(OC(=O)Nc3cccc(Cl)c3Cl)ccc12
inactive: [2] 89 % of control | [3] 93 % of control | [4] 98 % of control

COC(=O)/C=C/C=C/c1ccc(Br)cc1
inactive: [5] 91 % of control | [6] 92 % of control | [7] 92 % of control

C=NN=C(N)N
inactive: dose: 0.38 mg/kg/injection, schedule: Q01DX Z (ip), vehicle: saline 100 % of control | dose: 0.75 mg/kg/injection, schedule: Q01DX Z (ip), vehicle: saline 92 % of control | dose: 3.0 mg/kg/injection, schedule: Q01DX Z (ip), vehicle: saline 87 % of control | dose: 6.0 mg/kg/injection, schedule: Q01DX Z (ip), vehicle: saline 106 % of control | dose: 12.0 mg/kg/injection, schedule: Q01DX Z (ip), vehicle: saline 102 % of control | dose: 15.0 mg/kg/injection, schedule: Q01DX Z (ip), vehicle: saline 100 % of control | dose: 15.0 mg/kg/injection, schedule: Q01DX Z (oral), vehicle: saline 86 % of control | dose: 30.0 mg/kg/injection, schedule: Q01DX Z (ip), vehicle: saline 105 % of control | dose: 30.0 mg/kg/injection, schedule: Q01DX Z (oral), vehicle: saline 92 % of control

CN1CCC(CO)(c2ccccc2)C1 (stereo not given)
inactive: dose: 75.0 mg/kg/injection, schedule: Q01DX001 (ip), vehicle: carboxymethylcellulose (CMC) 96 % of control | dose: 150.0 mg/kg/injection, schedule: Q01DX001 (ip), vehicle: carboxymethylcellulose (CMC) 98 % of control

O=C(O)c1nnn(Cc2ccccc2)n1
inactive: dose: 100.0 mg/kg/injection, schedule: Q04DX003 (ip), vehicle: acetone 94 % of control | dose: 200.0 mg/kg/injection, schedule: Q04DX003 (ip), vehicle: acetone 96 % of control | dose: 400.0 mg/kg/injection, schedule: Q04DX003 (ip), vehicle: acetone 96 % of control

COc1ccc(C2NC(=O)N3C(c4ccc(OC)c(OC)c4)NC(=O)N23)cc1OC (stereo not given)
inactive: dose: 100.0 mg/kg/injection, schedule: Q04DX002 (ip), vehicle: gum acacia 98 % of control | dose: 200.0 mg/kg/injection, schedule: Q04DX002 (ip), vehicle: gum acacia 102 % of control | dose: 400.0 mg/kg/injection, schedule: Q04DX002 (ip), vehicle: gum acacia 105 % of control

COC(=O)C(C)(C)O
inactive: [8] 102 % of control | [5] 104 % of control | [9] 102 % of control | [6] 100 % of control | dose: 400.0 mg/kg/injection, schedule: Q01DX009 (ip), vehicle: saline 97 % of control | [7] 104 % of control

Cc1ccc(NC(=O)COc2cc(Cl)c(Cl)cc2Cl)c([N+](=O)[O-])c1
inactive: [4] 105 % of control | [10] 106 % of control | dose: 200.0 mg/kg/injection, schedule: Q01DX009 (ip), vehicle: Klucel (hydroxypropylcellulose) (HPC) 89 % of control | [11] 102 % of control | dose: 400.0 mg/kg/injection, schedule: Q01DX009 (ip), vehicle: Klucel (hydroxypropylcellulose) (HPC) 89 % of control | [12] 93 % of control

CCC(OO)(C1=NC(C)(C)CO1)c1ccncc1Br (stereo not given)
inactive: [13] 98 % of control | [10] 97 % of control | [14] 101 % of control | [11] 101 % of control | [12] 102 % of control

Clc1ccc2c(c1)Sc1ccc(Cl)cc1S2
inactive: dose: 100.0 mg/kg/injection, schedule: Q04DX002 (ip), vehicle: saline with Tween-80 101 % of control | dose: 200.0 mg/kg/injection, schedule: Q04DX002 (ip), vehicle: saline with Tween-80 101 % of control | dose: 400.0 mg/kg/injection, schedule: Q04DX002 (ip), vehicle: saline with Tween-80 97 % of control

Cc1nc(Cl)c(C#N)c(C)c1[N+](=O)[O-]
inactive: [5] 95 % of control | [6] 90 % of control

NC(=S)N/N=C/c1ccc([N+](=O)[O-])s1 (tested in a mixture with another compound)
inactive: [15] 92 % of control | [16] 97 % of control | [17] 94 % of control

O=C(/C=C/c1ccccc1Cl)NCC(O)CO (stereo not given)
inactive: dose: 100.0 mg/kg/injection, schedule: Q04DX003 (ip), vehicle: other 108 % of control | dose: 200.0 mg/kg/injection, schedule: Q04DX003 (ip), vehicle: other 109 % of control | dose: 400.0 mg/kg/injection, schedule: Q04DX003 (ip), vehicle: other 109 % of control

Cc1cccc[n+]1CCC(N)=O
inactive: dose: 6.25 mg/kg/injection, schedule: Q01DX009 (ip), vehicle: saline 97 % of control | dose: 12.5 mg/kg/injection, schedule: Q01DX009 (ip), vehicle: saline 97 % of control | dose: 25.0 mg/kg/injection, schedule: Q01DX009 (ip), vehicle: saline 108 % of control

O=C(O)CCc1nn(-c2ccccc2)c(=O)c2ccccc12
inactive: [18] 106 % of control | [19] 95 % of control

CCOC(Nc1ccc(Cl)c(Cl)c1)C(=O)c1ccccc1 (stereo not given)
inactive: [1] 105 % of control | [20] 105 % of control | [21] 96 % of control

COc1ccc(OCCCO)cc1
inactive: [18] 108 % of control | [19] 105 % of control | dose: 400.0 mg/kg/injection, schedule: Q04DX002 (ip), vehicle: Klucel (hydroxypropylcellulose) (HPC) 97 % of control

CCOC1=C(Cl)C(=O)C(OCC)=C(Cl)C1=O
inactive: dose: 4.0 mg/kg/injection, schedule: Q04DX003 (ip), vehicle: DMSO 98 % of control | dose: 6.0 mg/kg/injection, schedule: Q04DX003 (ip), vehicle: DMSO 98 % of control | dose: 9.0 mg/kg/injection, schedule: Q04DX003 (ip), vehicle: DMSO 96 % of control and 86 % of control | dose: 75.0 mg/kg/injection, schedule: Q01DX001 (ip), vehicle: alcohol 92 % of control | dose: 150.0 mg/kg/injection, schedule: Q01DX001 (ip), vehicle: alcohol 97 % of control

CC(C)Cc1ccccn1
inactive: [2] 96 % of control | [3] 98 % of control | [4] 91 % of control

CCOc1ccccc1/C=N/NC(=O)C(O)(c1ccccc1)c1ccccc1
inactive: [15] 101 % of control | [16] 101 % of control | [17] 97 % of control

C=C[CH2][Sn]([Br])([Br])[Br]
inactive: dose: 50.0 mg/kg/injection, schedule: Q01DX009 (ip), vehicle: saline 115 % of control | [8] 95 % of control | [9] 86 % of control

CS(=O)(=O)c1nsc(S(C)(=O)=O)c1C#N
inactive: dose: 100.0 mg/kg/injection, schedule: Q04DX003 (ip), vehicle: carboxymethylcellulose (CMC) 95 % of control | dose: 200.0 mg/kg/injection, schedule: Q04DX003 (ip), vehicle: carboxymethylcellulose (CMC) 97 % of control | dose: 400.0 mg/kg/injection, schedule: Q04DX003 (ip), vehicle: carboxymethylcellulose (CMC) 95 % of control

CCOP(=O)(NC1C2CCC(C2)C1C)OCC (stereo not given)
inactive: [20] 98 % of control | [21] 102 % of control

Nc1nc(Br)c(Br)nc1C(=O)O
inactive: dose: 12.5 mg/kg/injection, schedule: Q01DX009 (ip), vehicle: Klucel (hydroxypropylcellulose) (HPC) 101 % of control and 103 % of control | [2] 97 % of control | dose: 50.0 mg/kg/injection, schedule: Q01DX001 (ip), vehicle: Klucel (hydroxypropylcellulose) (HPC) 101 % of control | [3] 95 % of control and 91 % of control | dose: 50.0 mg/kg/injection, schedule: Q04DX002 (ip), vehicle: Klucel (hydroxypropylcellulose) (HPC) 104 % of control | dose: 50.0 mg/kg/injection, schedule: Q04DX003 (ip), vehicle: Klucel (hydroxypropylcellulose) (HPC) 103 % of control | [13] 102 % of control | [18] 100 % of control | [10] 106 % of control | [14] 96 % of control

CCCCCCCCCCCCOc1ccccc1C=O
inactive: [10] 101 % of control | [11] 106 % of control | [12] 96 % of control
